Laboratory results taken from patent US7767659B2, “Synthesis of naturally occurring ecteinascidins and related compounds” (Pharma Mar, S.A., priority 2002, dated 2010).

Columns and labels:
A-549 = assay: cells; settings: A549, SRB, 48 hours exposure
Protocol: (§1) This form of the assay employs 96 well cell culture microplates of 9 mm diameter (Faircloth, 1988; Mosmann, 1983). Most of the cell lines are obtained from American Type Culture Collection (ATCC) derived from different human cancer types.
(§2) Cells are maintained in RPMI 1640 10% FBS, supplemented with 0.1 g/l penicillin and 0.1 g/l streptomycin sulfate and then incubated at 37° C., 5% CO2 and 98% humidity. For the experiments, cells were harvested from subconfluent cultures using trypsin and resuspended in fresh medium before plating.
(§3) Cells are seeded in 96 well microtiter plates, at 5×10^3 cells per well in aliquots of 195 μl medium, and they are allowed to attach to the plate surface by growing in drug free medium for 18 hours. Afterward, samples are added in aliquots of 5 μl in a ranging from 10 to 10^−8 μg/ml, dissolved in DMSO/EtOH/PBS (0.5:0.5:99). After 48 hours exposure, the antitumor effect are measured by the SRB methodology: cells are fixed by adding 50 μl of cold 50% (wt/vol) trichloroacetic acid (TCA) and incubating for 60 minutes at 4° C. Plates are washed with deionized water and dried. One hundred μl of SRB solution (0.4% wt/vol in 1% acetic acid) is added to each microtiter well and incubated for 10 minutes at room temperature. Unbound SRB is removed by washing with 1% acetic acid. Plates are air dried and bound stain is solubilzed with Tris buffer. Optical densities are read on a automated spectrophotometric plate reader at a single wavelength of 490 nm.
(§4) The values for mean +/− SD of data from triplicate wells are calculated. Some parameters for cellular responses can be calculated: GI=growth inhibition, TGI=total growth inhibition (cytostatic effect) and LC=cell killing (cytotoxic effect).

HT-29 = assay: cells; settings: HT29, SRB, 48 hours exposure
Protocol: as §1, §2, §3, §4

LoVo = assay: cells; settings: LOVO, SRB, 48 hours exposure
Protocol: as §1, §2, §3, §4

DU-145 = assay: Inhibition of cells growth by colorimetric assay (SRB); settings: DU145, SRB, 48 hours exposure
Protocol: as §1, §2, §3, §4

HeLa-APL = assay: as above; settings: HELA-APL, SRB, 48 hours exposure
Protocol: as §1, §2, §3, §4

HeLa = assay: as above; settings: HELA, SRB, 48 hours exposure
Protocol: as §1, §2, §3, §4

IGROV-1 = assay: as above; settings: IGROV, SRB, 48 hours exposure
Protocol: as §1, §2, §3, §4

IGROV-ET = assay: as above; settings: IGROV-ET, SRB, 48 hours exposure
Protocol: as §1, §2, §3, §4

K-562 = assay: as above; settings: K562, SRB, 48 hours exposure
Protocol: as §1, §2, §3, §4

LNCaP = assay: as above; settings: LNCAP, SRB, 48 hours exposure
Protocol: as §1, §2, §3, §4

LoVo-Dox = assay: as above; settings: LOVO-DOX, SRB, 48 hours exposure
Protocol: as §1, §2, §3, §4

PANC-1 = assay: as above; settings: PANC-1, SRB, 48 hours exposure
Protocol: as §1, §2, §3, §4

SK-BR-3 = assay: as above; settings: SK-BR3, SRB, 48 hours exposure
Protocol: as §1, §2, §3, §4

SK-MEL-28 = assay: as above; settings: MEL-28, SRB, 48 hours exposure
Protocol: as §1, §2, §3, §4

SMILES: COC1=C(C)C(=O)C2=C(C1=O)C1C3C4SCC(NC(C)=O)C(=O)OCC(c5c6c(c(C)c(OC(C)=O)c54)OCO6)N3C(O)C(C2)N1C (stereo not shown) [ET-637-quinone, ecteinascidin 637 quinone]
- A549 TGI (A-549): 1.09E−08 Molar
- GI50 (A-549; read-out: A549 GI50): 4.42 nM
- CC50 (A-549; read-out: A549 LC50): 51.5 nM
- HT29 TGI (HT-29): 7.78E−09 Molar
- GI50 (HT-29; read-out: HT29 GI50): 3.32 nM
- CC50 (HT-29; read-out: HT29 LC50): 2260 nM
- LOVO TGI (LoVo): 8.51E−09 Molar
- GI50 (LoVo; read-out: LOVO GI50): 3.98 nM
- CC50 (LoVo; read-out: LOVO LC50): 6080 nM
- DU145 TGI (DU-145): 6.30E−09 Molar
- GI50 (DU-145; read-out: DU145 GI50): 3.74 nM
- CC50 (DU-145; read-out: DU145 LC50): 15.3 nM
- HELA-APL TGI (HeLa-APL): 5.12E−09 Molar
- GI50 (HeLa-APL; read-out: HELA-APL GI50): 2.39 nM
- CC50 (HeLa-APL; read-out: HELA-APL LC50): 10.9 nM
- HELA TGI (HeLa): 4.88E−09 Molar
- GI50 (HeLa; read-out: HELA GI50): 2.24 nM
- CC50 (HeLa; read-out: HELA LC50): 10.6 nM
- IGROV TGI (IGROV-1): 5.80E−09 Molar
- GI50 (IGROV-1; read-out: IGROV GI50): 2.76 nM
- CC50 (IGROV-1; read-out: IGROV LC50): 12.1 nM
- IGROV-ET TGI (IGROV-ET): 6.91E−08 Molar
- GI50 (IGROV-ET; read-out: IGROV-ET GI50): 34.2 nM
- CC50 (IGROV-ET; read-out: IGROV-ET LC50): 139 nM
- K562 TGI (K-562): 1.97E−09 Molar
- CC50 (K-562; read-out: K562 LC50): 14.4 nM
- LNCAP TGI (LNCaP): 3.64E−09 Molar
- GI50 (LNCaP; read-out: LNCAP GI50): 1.78 nM
- CC50 (LNCaP; read-out: LNCAP LC50): 7.44 nM
- LOVO-DOX TGI (LoVo-Dox): 9.62E−07 Molar
- GI50 (LoVo-Dox; read-out: LOVO-DOX GI50): 262 nM
- CC50 (LoVo-Dox; read-out: LOVO-DOX LC50): 90 nM
- PANC-1 TGI (PANC-1): 8.24E−09 Molar
- GI50 (PANC-1; read-out: PANC-1 GI50): 3.72 nM
- CC50 (PANC-1; read-out: PANC-1 LC50): 3.42 nM
- SK-BR3 TGI (SK-BR-3): 2.67E−09 Molar
- CC50 (SK-BR-3; read-out: SK-BR3 LC50): 8.51 nM
- MEL-28 TGI (SK-MEL-28): 5.34E−09 Molar
- GI50 (SK-MEL-28; read-out: MEL-28 GI50): 2.96 nM
- CC50 (SK-MEL-28; read-out: MEL-28 LC50): 9.61 nM
